In publication PMC3682544, “Structural Analysis of Collagen Type I Interactions with Human Fibronectin Reveals a Cooperative Binding Mode” (The Journal of Biological Chemistry, 2013):
Read-outs that look alike come from different tables or passages of the source. Square brackets hold non-standard residues; d marks the D form. Ends that are not written are not given here. Peptide text beside a SMILES is read from it. * marks the point of attachment. 5FAM = O=C1OC2(c3ccc(O)cc3Oc3cc(O)ccc32)c2ccc(C(=O)*)cc21; Hyp = O=C(O)[C@@H]1C[C@@H](O)CN1

Key:
[1] = target: T1, GBD (gelatin-binding domain, ^6FnI^1–2FnII^7–9FnI, residues 305–608) of human FN (Homo sapiens, UniProt P02751, H307D/N528Q/R534K); test: Fluorescence polarization titrations of 5-carboxyfluorescein-labelled collagen peptides with GBD; conditions: FA: fluorescence polarization, 75 nM N-terminal 5-carboxyfluorescein peptide, increasing protein, PBS, 25 °C, single binding model
T1 construct: FN fragments corresponding to residues 305–608 (GBD); made in house
T1 sequence (P02751 305-608 H307D/N528Q/R534K): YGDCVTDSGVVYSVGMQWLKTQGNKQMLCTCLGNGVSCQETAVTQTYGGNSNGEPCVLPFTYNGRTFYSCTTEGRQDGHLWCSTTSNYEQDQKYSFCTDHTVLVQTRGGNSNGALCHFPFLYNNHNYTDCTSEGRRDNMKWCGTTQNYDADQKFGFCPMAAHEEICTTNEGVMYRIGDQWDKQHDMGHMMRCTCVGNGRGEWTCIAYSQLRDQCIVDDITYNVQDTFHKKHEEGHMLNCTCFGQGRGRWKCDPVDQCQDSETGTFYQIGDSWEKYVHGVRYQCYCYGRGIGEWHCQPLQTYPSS
Text: (§1) FN fragments corresponding to residues 305–608 (GBD), 305–515 (^6FnI^1–2FnII^7FnI), and 516–608 (^8–9FnI) and bearing single amino acid substitutions to improve solubility and protein yields (H307D, N528Q, and R534K) were produced as described previously ([7], [26], [32]). Synthetic collagen peptides were purchased from GL Biochem (Shanghai, China); their sequences are provided in Table 1, and unless fluorescently tagged, they included a C-terminal tyrosine residue for UV determination of peptide concentration. Fluorescent peptides had 5-carboxyfluorescein attached to the N-terminal amine group.
Fluorescence polarization measurements were performed at 25 °C in PBS using SpectraMax M5 (Molecular Devices) and PHERAstar FS (BMG Labtech) fluorometers. […] Differences in fluorescence polarization were fit using a single binding model in the program Origin (OriginLab) ([33]).

[2] = target: T2, ^8–9FnI (FN residues 516–608) (Homo sapiens, UniProt P02751, N528Q/R534K); test: ^1H-^15N heteronuclear single quantum correlation NMR titrations with ^8–9FnI; format: binding; conditions: NMR ^1H-^15N HSQC titration, PBS pH 7.2, 25 °C; for Kd: single binding event fit
T2 construct: and 516–608 (^8–9FnI); made in house
Text: as §1
(§2) NMR spectrometers used superconducting magnets (Oxford Instruments) at 950- and 500-MHz proton resonance frequencies (home-built or Bruker AVANCE II consoles and room temperature or cryogenic probe heads, respectively). Spectra were recorded in PBS (20 mM Na2HPO4 (pH 7.2) and 150 mM NaCl) with 1% 4,4-dimethyl-4-silapentane-1-sulfonic acid as a calibration standard. Experiment temperatures were optimized to avoid resonance broadening due to intermediate exchange phenomena and corresponded to 25 °C (^8–9FnI) or 37 °C (^6FnI^1–2FnII^7FnI). Sequential chemical shift assignments were performed earlier ([7], [26]). Analysis of spectral perturbations upon protein interactions and determination of equilibrium parameters were performed as described ([33]).

[3] = target: T3, ^6FnI^1–2FnII^7FnI (FN residues 305–515) (Homo sapiens, UniProt P02751, H307D); test: ^1H-^15N heteronuclear single quantum correlation NMR titrations with ^6FnI^1–2FnII^7FnI; format: binding; conditions: NMR ^1H-^15N HSQC titration, chemical shift analysis, PBS pH 7.2, 37 °C
T3 construct: 305–515 (^6FnI^1–2FnII^7FnI); made in house
T3 sequence (P02751 305-515 H307D): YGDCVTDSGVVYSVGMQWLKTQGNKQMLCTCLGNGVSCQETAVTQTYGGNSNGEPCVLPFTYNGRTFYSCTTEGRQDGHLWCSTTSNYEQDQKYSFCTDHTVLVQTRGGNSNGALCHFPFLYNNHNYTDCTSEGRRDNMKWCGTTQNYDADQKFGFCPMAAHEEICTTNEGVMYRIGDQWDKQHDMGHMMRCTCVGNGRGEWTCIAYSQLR
Text: as §1, §2

[4] = target: T2, ^8–9FnI (FN residues 516–608); conditions: NMR titration; cited from earlier work
Text: TABLE 1 KD values for collagen I peptide binding to FN fragments α1 and α2 chain numbering is taken to begin at the estimated start of the helical region. “O” in peptide sequences denotes 4-hydroxyproline. NMR, ^1H-^15N heteronuclear single quantum correlation NMR titrations; FA, fluorescence polarization titrations using N-terminal 5-carboxyfluorescein labeling. In titrations where no binding was | column: KD / ^8–9FnI || To firmly establish the elusive molecular interplay between the GBD and the most common collagen (type I), we first need to understand the exact nature of the binding site. […] At a distance of ∼1/10 (D-period 1, peptides AN and CN) or 3/4 (D-period 4, peptides BN and DN) from the N terminus of the triple hel ... || FIGURE 3. GBD-binding sites on collagen type I. A, schematic representation of the collagen type I α1 and α2 chains and the two FN-binding sites at 1/10 and 3/4 sequence distance from the collagen N terminus. ^8–9FnI-binding sites (peptides AN, BN, CN, and DN) are shown in blue, with the sequences immediately C-terminal thereof (peptides AC, BC, CC, and DC) shown in red. Dissociation constants are indicated. Highlighted in green is the only site where the two GBD subfragments, ^6FnI^1–2FnII^7FnI and ^8–9FnI, bind collagen type I cooperatively. B, amino acid sequences of peptides A–D. Conserved ...
Target sequence in this assay (P02751 516-608 N528Q/R534K): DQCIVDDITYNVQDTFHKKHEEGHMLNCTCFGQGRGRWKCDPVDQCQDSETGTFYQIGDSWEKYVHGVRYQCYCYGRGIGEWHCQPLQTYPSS

[5] = target: fibronectin modules 8-9FnI, residues 516-608 (human) (UniProt P02751); test: NMR titration; 1H-15N HSQC of 8-9FnI, collagen peptide titrated in, PBS (20 mM Na2HPO4 pH 7.2, 150 mM NaCl), 25 °C; single binding event
[6] = target: collagen type I alpha1 peptide B, G772-G820, 5-carboxyfluorescein labelled; test: fluorescence polarisation; 75 nM 5-carboxyfluorescein-labelled peptide, increasing concentrations of protein, 96-well plates, 25 °C, PBS; single binding model
[7] = target: collagen type I alpha2 peptide D, G772-G820, 5-carboxyfluorescein labelled; test: as above
[8] = target: collagen type I alpha2 peptide C, Q72-G118, 5-carboxyfluorescein labelled; test: as above
[9] = target: collagen type I alpha1 peptide A, G70-G118, 5-carboxyfluorescein labelled; test: as above

5FAM-GPQGARGL[Hyp]GTAGL[Hyp]GMKGHRGFSGLDGAKGDAGPAGPKGE[Hyp]GS[Hyp]GENG [A]
Kd [1]: 97.9 ± 8.2 µM

5FAM-GPQGIAGQRGVVGL[Hyp]GQRGERGF[Hyp]GL[Hyp]GPSGE[Hyp]GKQGPSGASGERGP[Hyp]G [B]
Kd [1]: 15.2 ± 2 µM

5FAM-GPQGLLGA[Hyp]GILGL[Hyp]GSRGERGL[Hyp]GVAGAVGEPGPLGIAGP[Hyp]GARGP[Hyp]G [D]
Kd [1]: 5.8 ± 1 µM

5FAM-QGARGF[Hyp]GT[Hyp]GL[Hyp]GFKGIRGHNGLDGLKGQ[Hyp]GA[Hyp]GVKGE[Hyp]GA[Hyp]GENG [C]
Kd [1]: 25.6 ± 2.6 µM

CSCC[C@H](NC(=O)CNC(=O)[C@@H]1C[C@@H](O)CN1C(=O)[C@H](CC(C)C)NC(=O)CNC(=O)[C@H](C)NC(=O)[C@@H](NC(=O)CNC(=O)[C@@H]1C[C@@H](O)CN1C(=O)[C@H](CC(C)C)NC(=O)CN)[C@@H](C)O)C(=O)N[C@@H](CCCCN)C(=O)NCC(=O)N[C@@H](Cc1c[nH]cn1)C(=O)N[C@@H](CCCNC(=N)N)C(=O)NCC(=O)N[C@@H](Cc1ccccc1)C(=O)N[C@@H](CO)C(=O)NCC(=O)N[C@@H](CC(C)C)C(=O)N[C@@H](CC(=O)O)C(=O)NCC(=O)N[C@@H](Cc1ccc(O)cc1)C(=O)O [AN] (H-GL[Hyp]GTAGL[Hyp]GMKGHRGFSGLDGY-OH)
Kd [2]: 143 ± 17.3 µM

CC(C)C[C@H](NC(=O)CNC(=O)[C@H](CO)NC(=O)[C@@H](NC(=O)CNC(=O)[C@H](CCCNC(=N)N)NC(=O)[C@H](CCC(N)=O)NC(=O)CN)C(C)C)C(=O)N1C[C@H](O)C[C@H]1C(=O)NCC(=O)N[C@@H](CCC(N)=O)C(=O)N[C@@H](CCCNC(=N)N)C(=O)NCC(=O)N[C@@H](CCC(=O)O)C(=O)N[C@@H](CCCNC(=N)N)C(=O)NCC(=O)N[C@@H](Cc1ccccc1)C(=O)N1C[C@H](O)C[C@H]1C(=O)NCC(=O)N[C@@H](CC(C)C)C(=O)N1C[C@H](O)C[C@H]1C(=O)NCC(=O)N[C@@H](Cc1ccc(O)cc1)C(=O)O [BN-S783V] (H-GQRGVSGL[Hyp]GQRGERGF[Hyp]GL[Hyp]GY-OH)
KD ^8–9FnI (NMR interaction regime, in words) [2]: fast interaction regime
Kd [2]: 96.5 ± 11.4 µM

CC(C)C[C@H](NC(=O)CNC(=O)[C@H](CC(=O)O)NC(=O)[C@H](CC(C)C)NC(=O)CNC(=O)[C@H](CC(N)=O)NC(=O)[C@H](Cc1c[nH]cn1)NC(=O)CN)C(=O)N[C@@H](CCCCN)C(=O)NCC(=O)N[C@@H](CCC(N)=O)C(=O)N1C[C@H](O)C[C@H]1C(=O)NCC(=O)N[C@@H](C)C(=O)N1C[C@H](O)C[C@H]1C(=O)NCC(=O)N[C@H](C(=O)N[C@@H](CCCCN)C(=O)NCC(=O)N[C@@H](CCC(=O)O)C(=O)N1C[C@H](O)C[C@H]1C(=O)NCC(=O)N[C@@H](C)C(=O)N1C[C@H](O)C[C@H]1C(=O)NCC(=O)N[C@@H](CCC(=O)O)C(=O)N[C@@H](CC(N)=O)C(=O)NCC(=O)N[C@@H](Cc1ccc(O)cc1)C(=O)O)C(C)C [CC] (H-GHNGLDGLKGQ[Hyp]GA[Hyp]GVKGE[Hyp]GA[Hyp]GENGY-OH)
Kd [3]: 248 ± 11.6 µM

CC[C@H](C)[C@H](NC(=O)CNC(=O)[C@H](CCCCN)NC(=O)[C@H](Cc1ccccc1)NC(=O)CNC(=O)[C@@H]1C[C@@H](O)CN1C(=O)[C@H](CC(C)C)NC(=O)CNC(=O)[C@@H]1C[C@@H](O)CN1C(=O)[C@@H](NC(=O)CNC(=O)[C@@H]1C[C@@H](O)CN1C(=O)[C@H](Cc1ccccc1)NC(=O)CN)[C@@H](C)O)C(=O)N[C@@H](CCCNC(=N)N)C(=O)NCC(=O)N[C@@H](Cc1c[nH]cn1)C(=O)N[C@@H](CC(N)=O)C(=O)NCC(=O)N[C@@H](CC(C)C)C(=O)N[C@@H](CC(=O)O)C(=O)NCC(=O)N[C@@H](Cc1ccc(O)cc1)C(=O)O [CN] (H-GF[Hyp]GT[Hyp]GL[Hyp]GFKGIRGHNGLDGY-OH)
Kd [2]: 2000 ± 200 µM

BN: Synthetic collagen type I α1 peptide 775–799 with C-terminal tyrosine (GLPGQRGVVGLPGQRGERGFPGLPGY; 4-hydroxyproline at peptide positions 3, 12, 21 and 24 (printed O); its leading GLO differs from the native GIA in peptide B. The text and PDB 3)
Kd [4]: 5 ± 1 µM

DN: Synthetic collagen type I α2 peptide 778–799 with C-terminal tyrosine (GAPGILGLPGSRGERGLPGVAGY; 4-hydroxyproline at peptide positions 3, 9 and 18 (printed O); C-terminal Tyr added for UV quantification)
Kd [4]: 8 ± 2 µM

collagen type I alpha1 peptide BN with Val783 changed to serine, G778-G799 with C-terminal tyrosine
Kd [5]: 97 µM

gelatin-binding domain (GBD) of human fibronectin, 6FnI1-2FnII7-9FnI, residues 305-608 (from UniProt P02751 305-608) (domain or fragment)
Kd [6]: 15 µM
Kd [7]: 6 µM
Kd [8]: 26 µM
Kd [9]: 98 µM
